Experimental data published in US10632147B2, “Methods and compositions for treating inflammatory disorders” (priority 2007, dated 2020).

Conditions: in vivo

Compound: NCc1ccc(S(N)(=O)=O)cc1 [Sulfamylon]
- safety profile (adverse effects): absence of adverse effects
